Paper PMC7497630, “Coibamide A Targets Sec61 to Prevent Biogenesis of Secretory and Membrane Proteins” (ACS Chemical Biology, 2020)
Bridge positions count the residues as written; N and C are the ends. Square brackets hold non-standard residues; d marks the D form. Peptide text beside a SMILES is read from it. * marks the point of attachment. Phe(4-CF3-diazirinyl) = N[C@@H](Cc1ccc(C2(C(F)(F)F)N=N2)cc1)C(=O)O; NMe2Val = CC(C)[C@@H](C(=O)*)N(C)C; NMeI = CC[C@H](C)[C@H](NC)C(=O)O; NMeT = CN[C@H](C(=O)O)[C@@H](C)O; NMeL = CN[C@@H](CC(C)C)C(=O)O; NMePra = C#CC[C@H](NC)C(=O)O; dHiv = CC(C)[C@@H](O)C(=O)O; NMeS = CN[C@@H](CO)C(=O)O; Pra = C#CC[C@H](N)C(=O)O; dNMeA = CN[C@H](C)C(=O)O

Columns and labels:
[1] = target: Sec61α in U87-MG glioblastoma cells (Homo sapiens, UniProt P61619); assay: Cellular thermal shift assay; type: cell-based; conditions: intact U87-MG cells
[2] = system: HCT116 cells; assay: Cell viability, Alamar Blue assay; type: cell-based, human; conditions: HCT116, 72 h, 0.1% DMSO (Figure 1D), read-out: IC50
Procedure: Figure 1 Cytotoxicity of synthetic and Pra-containing coibamides. (A) Structure of CbA. (B) Human MDA-MB-231 breast cancer cells were treated with increasing concentrations of synthetic CbA or vehicle (0.1% DMSO) and cell viability assessed at 72 h by an MTS end-point assay. (C) Structure of Photo-CbA. (D) Human HCT116 cells were treated with increasing concentrations of synthetic or photo-CbA in 0.1% DMSO, and cell viability assessed at 72 h by Alamar Blue assay. TEXT PRINTED IN THE PICTURE: (B) CbA: MDA-MB-231 cell line: IC50(nM): 1.6 | (D) CbA: HCT 116 cell line: IC50(nM): 29.2 | (D) Photo-CbA: HCT 116 cell line: IC50(nM): 6.5
Figure 5 CbA mode of inhibition is specific compared to known Sec61 inhibitors. (A) Cell viability was measured by Alamar Blue assay (mean ± SD, n = 4, all cell lines assayed simultaneously) for HCT-116 cell lines isolated on the basis of CbA resistance in the presence of concentration series of indicated compounds. (B) Cell viability was measured by Alamar Blue assay (mean ± SD, n = 4, all cell lines assayed simultaneously) for HEK293FRT cells stably expressing Sec61α mutants in the presence of concentration series of indicated compounds. (C) Comparison of published NCI60 data for CbA,[3] AprA,[11] and IpoF.[33] The heat map was derived by plotting each GI50 value divided by the median GI50 for that compound. X indicates a cell line that was not tested. Closed arrowhead indicates cell lines with most notable differences across the three compounds. […]
A431, HEK293T, and HEK293FRT cells were cultured in DMEM supplemented with 10% FBS. […] Viability was estimated by the addition of Alamar Blue (Life Technologies) and measuring fluorescence after a further 4 h. […]

[3] = system: A549 human lung adenocarcinoma cells; conditions: 72 h

Chain of Sec61α in U87-MG glioblastoma cells (P61619 whole entry): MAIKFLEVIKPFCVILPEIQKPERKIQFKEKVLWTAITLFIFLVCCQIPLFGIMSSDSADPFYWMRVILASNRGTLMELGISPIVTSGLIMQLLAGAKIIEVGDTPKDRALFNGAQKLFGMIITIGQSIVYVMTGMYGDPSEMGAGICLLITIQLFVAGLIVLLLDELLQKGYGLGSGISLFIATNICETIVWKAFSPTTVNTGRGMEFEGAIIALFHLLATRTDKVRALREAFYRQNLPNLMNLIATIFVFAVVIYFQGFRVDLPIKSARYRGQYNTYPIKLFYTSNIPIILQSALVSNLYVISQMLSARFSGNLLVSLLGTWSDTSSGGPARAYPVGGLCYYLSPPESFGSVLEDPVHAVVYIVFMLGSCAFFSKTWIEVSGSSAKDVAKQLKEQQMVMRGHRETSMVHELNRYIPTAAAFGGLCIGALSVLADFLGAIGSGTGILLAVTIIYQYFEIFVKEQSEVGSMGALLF
Chain of Sec61α in U87-MG glioblastoma cells (P60468 2-96 partner limits assumed): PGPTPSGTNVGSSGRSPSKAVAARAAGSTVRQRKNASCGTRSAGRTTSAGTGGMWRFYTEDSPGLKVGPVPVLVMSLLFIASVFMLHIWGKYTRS
Chain of Sec61α in U87-MG glioblastoma cells (P60059 whole entry partner): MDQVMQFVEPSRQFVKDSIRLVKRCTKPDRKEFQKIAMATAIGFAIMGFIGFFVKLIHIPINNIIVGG

Row | SMILES | IC50 [3] | other results
1 | NCC(=O)Nc1ccc(-n2nc(C(F)(F)F)cc2-c2ccc3c(ccc4ccccc43)c2)cc1 [OSU-03012] | – | Sec61α detection at 60–66 °C (melting curve) ([1]; 45 to 72 °C for 3 min, 3 μM OSU-03012, 1 h): relatively weak immunoreactivity; stabilization of Sec61α, isothermal dose–response ([1]; 51 °C for 3 min, OSU-03012 0.03 nM to 10 μM): no apparent stabilization
2 | C#CC[C@@H](C(=O)N(C)[C@@H](CC(C)C)C(=O)N(C)[C@@H]1C(=O)N(C)[C@@H](COC)C(=O)N(C)[C@@H]([C@@H](C)CC)C(=O)N[C@@H](C)C(=O)N(C)[C@@H](CC(C)C)C(=O)N[C@@H](Cc2ccc(C3(C(F)(F)F)N=N3)cc2)C(=O)N(C)[C@H](C)C(=O)O[C@@H]1C)N(C)C(=O)[C@H](OC(=O)[C@H](C(C)C)N(C)C)C(C)C [Photo-CbA] (NMe2Val-[dHiv][NMePra][NMeL][NMeT][NMeS](Me)[NMeI]A[NMeL][Phe(4-CF3-diazirinyl)][dNMeA]; ester 4-C) | – | IC50 [2]: 6.5 nM
3 | C#CC[C@@H](C(=O)N(C)[C@@H](CC(C)C)C(=O)N(C)[C@@H]1C(=O)N(C)[C@@H](COC)C(=O)N(C)[C@@H]([C@@H](C)CC)C(=O)N[C@@H](C)C(=O)N(C)[C@@H](CC(C)C)C(=O)N[C@@H](Cc2ccc(OC)cc2)C(=O)N(C)[C@H](C)C(=O)O[C@@H]1C)N(C)C(=O)[C@H](OC(=O)[C@H](C(C)C)N(C)C)C(C)C [R3 = propargyl] (NMe2Val-[dHiv][NMePra][NMeL][NMeT][NMeS](Me)[NMeI]A[NMeL]Y(Me)[dNMeA]; ester 4-C) | 1.7 ± 0.3 nM | –
4 | C#CC[C@@H](C(=O)N(C)[C@@H]1C(=O)N(C)[C@@H](COC)C(=O)N(C)[C@@H]([C@@H](C)CC)C(=O)N[C@@H](C)C(=O)N(C)[C@@H](CC(C)C)C(=O)N[C@@H](Cc2ccc(OC)cc2)C(=O)N(C)[C@H](C)C(=O)O[C@@H]1C)N(C)C(=O)[C@H](COC)N(C)C(=O)[C@H](OC(=O)[C@H](C(C)C)N(C)C)C(C)C [R4 = propargyl] (NMe2Val-[dHiv][NMeS](Me)[NMePra][NMeT][NMeS](Me)[NMeI]A[NMeL]Y(Me)[dNMeA]; ester 4-C) | 3.7 ± 0.5 nM | –
5 | C#CC[C@H]1C(=O)N(C)[C@@H]([C@@H](C)CC)C(=O)N[C@@H](C)C(=O)N(C)[C@@H](CC(C)C)C(=O)N[C@@H](Cc2ccc(OC)cc2)C(=O)N(C)[C@H](C)C(=O)O[C@H](C)[C@H](N(C)C(=O)[C@H](CC(C)C)N(C)C(=O)[C@H](COC)N(C)C(=O)[C@H](OC(=O)[C@H](C(C)C)N(C)C)C(C)C)C(=O)N1C [R6 = propargyl] (NMe2Val-[dHiv][NMeS](Me)[NMeL][NMeT][NMePra][NMeI]A[NMeL]Y(Me)[dNMeA]; ester 4-C) | 2 ± 0.9 nM | –
6 | C#CC[C@H]1C(=O)N[C@@H](C)C(=O)N(C)[C@@H](CC(C)C)C(=O)N[C@@H](Cc2ccc(OC)cc2)C(=O)N(C)[C@H](C)C(=O)O[C@H](C)[C@H](N(C)C(=O)[C@H](CC(C)C)N(C)C(=O)[C@H](COC)N(C)C(=O)[C@H](OC(=O)[C@H](C(C)C)N(C)C)C(C)C)C(=O)N(C)[C@@H](COC)C(=O)N1C [R7 = propargyl] (NMe2Val-[dHiv][NMeS](Me)[NMeL][NMeT][NMeS](Me)[NMePra]A[NMeL]Y(Me)[dNMeA]; ester 4-C) | 9.3 ± 3.4 nM | –
7 | C#CC[C@@H]1NC(=O)[C@H]([C@@H](C)CC)N(C)C(=O)[C@H](COC)N(C)C(=O)[C@@H](N(C)C(=O)[C@H](CC(C)C)N(C)C(=O)[C@H](COC)N(C)C(=O)[C@H](OC(=O)[C@H](C(C)C)N(C)C)C(C)C)[C@@H](C)OC(=O)[C@@H](C)N(C)C(=O)[C@H](Cc2ccc(OC)cc2)NC(=O)[C@H](CC(C)C)N(C)C1=O [R8 = propargyl] (NMe2Val-[dHiv][NMeS](Me)[NMeL][NMeT][NMeS](Me)[NMeI][Pra][NMeL]Y(Me)[dNMeA]; ester 4-C) | 66 ± 15 nM | –
8 | C#CC[C@H]1C(=O)N[C@@H](Cc2ccc(OC)cc2)C(=O)N(C)[C@H](C)C(=O)O[C@H](C)[C@H](N(C)C(=O)[C@H](CC(C)C)N(C)C(=O)[C@H](COC)N(C)C(=O)[C@H](OC(=O)[C@H](C(C)C)N(C)C)C(C)C)C(=O)N(C)[C@@H](COC)C(=O)N(C)[C@@H]([C@@H](C)CC)C(=O)N[C@@H](C)C(=O)N1C [R9 = propargyl] (NMe2Val-[dHiv][NMeS](Me)[NMeL][NMeT][NMeS](Me)[NMeI]A[NMePra]Y(Me)[dNMeA]; ester 4-C) | 19 ± 7.6 nM | –
